Measured values reported in US20240050413A1, “COMPOSITIONS AND METHODS FOR TREATING MULTIPLE SCLEROSIS AND ALLEVIATING FATIGUE” (University of Miami, priority 2020, published 2024).
“And” between values parts separate entries of the source, which are not always exact repeats. Identical values can stand only once.

Assays:
Format in all cases: in vivo, human
[1] = system: MS subjects with severe fatigue; assay: Sequential dose escalation study of fatigue in multiple sclerosis (VAFS, FSS, MFIS, Epworth sleep scale, satiety scale, adverse events); conditions: for improvement in the MFIS: on-drug vs off-drug
Procedure: Three groups of subjects participated in a sequential dose escalation protocol. All subjects received a fixed dose of carbidopa, 50 mg po bid. […] Tablets of the study drugs were produced by the research pharmacy at the University of Miami. Carbidopa was prepared in 50 mg, and 1-histidine at 250 mg strength. Drug dispensation was carried out by the research pharmacist according to the dosage designated for each group.
Benefits and adverse events were documented and reported to the Data Safety Monitoring Body (DSMB). After approval from the DSMB, group 2 was started. Group 2 received 500 mg po bid of L-histidine. Once again after approval from the DSMB, following the successful completion of group 2, escalation to group 3, namely 1 gm po bid of L-histidine was completed. All subjects agreed to participate with 2 lumbar punctures each a week apart, for collection of cerebrospinal fluid (CSF) for the PK/PD part of the study. Each group required the participation of 3 MS subjects and 1 normal individual. For whatever reason if a subject could not complete the study, the design permitted substitution so every group will have three MS subjects and a normal subject that completed the trial.
After informed consent, subjects were screened at the first visit to meet inclusion/exclusion criteria and baseline laboratory studies were obtained including complete blood counts, comprehensive metabolic panel, thyroid panel, and inventory of health measures, including a complete general examination as well as EKG. Subjects completed questionnaires that included the following: Visual Analogue Fatigue Scale (VAFS), fatigue severity scale (FSS), modified fatigue impact scale (MFIS), Epworth sleep scale, Satiety scale, and Center for Epidemiologic Studies Depression Scale. Within 30 days of their screening visit, subjects returned for their baseline visit. The questionnaires were completed again, and subjects underwent the baseline lumbar puncture for collection of baseline cerebrospinal fluid (CSF).
The study medication for the appropriate group was dispensed and all subjects took the first dose of the study drug during this visit.
(§1) Medications were dispensed for 7 days. On day 8, subjects arrived at the center and received the final dose of the study drug and timed from that dosing for the PK/PD studies.
(§2) Blood samples were collected at drug administration, and every 30 minutes for 4 hours. At 90 minutes the second and final lumbar puncture was completed, and CSF obtained for measurement of L-histidine and histamine. All subjects completed the same questions to determine the effects of the treatment on fatigue, wakefulness and satiety.
All subjects were recruited from the MS Center at the University of Miami. Subjects who complained of severe and persistent fatigue of duration longer than 6 months were eligible to be screened for the study. During screening inclusion and exclusion criteria were carefully reviewed. To be eligible, a subject needed to have a definite diagnosis of MS by the McDonald International Criteria and severe fatigue with a mean Fatigue Severity Score (FSS) of 5.0 or greater (maximum mean FSS=7.0). Patients with confounding factors such as anemia, untreated hypothyroidism, depression, concomitant medication that caused fatigue were carefully examined and excluded. Use of stimulants and concomitant use of medications for treatment of fatigue such as modafinil was excluded. Use of caffeine was not restricted, but patients were instructed not to change the usage. Pregnant or lactating females were not included in the study. Patients were cautioned not to use over-the-counter medications without approval of the PI during the study, especially medications for sleep or allergies including but not limited to the use of oral steroids or antihistamines with potential to confound the results of the trial.
They were spouses of patients who participated in this trial. […]

[2] = PK/PD: L-histidine levels in plasma and CSF after final dose
Procedure: as §1, §2
On day 7 from the baseline, the end-of-study visit, subjects arrived at the center without taking the last dose, which was administered under supervision and timed for time-zero. Baseline samples of blood for serum and plasma were collected and blood samples were obtained every half-hour for 6 hours.
At 90 minutes post administration a lumbar puncture was performed, and 0.5 ml aliquots of spinal fluid were collected for a total of 5 minutes. Spinal fluid, serum, and plasma were frozen at -80C until analysis for levels of histidine, histamine and metabolomic studies.
L-Histidine and L-Histidine-^13G6 analytical standards (Sigma Aldrich) were prepared in LC-MS grade water with 0.1% formic acid (FA). 25 μL of sample (CSF or blood) or calibration standard was mixed with 75 μL of LC-MS grade water with 0.1% FA and 200 μL of 2.5 μM L-Histidine-^13G6. […]

CSF biochemicals = assay: Metabolomics in the cerebrospinal fluid after histidine loading
Source text: Four CSF samples from normal subjects (2 before histidine loading and 2 after) and 12 CSF samples from MS patients (6 before and 6 after histidine loading) were examined in this study. The MS samples were evenly distributed from 3 responders and 3 non-responder MS subjects. The dataset comprised a total of 494 biochemicals, 434 known and 60 unknown entities. […] A summary of the biochemicals that achieved significance (p≤0.05) as also those approaching significance (0.05<p<0.10), were examined. All assays also examined estimates of false discoveries (q-value) inherent in estimates that use multiple comparisons. A low q-value (<0.1) gave confidence in a result with a low p value as a potentially meaningful result.

[3] = Group 1: 150 mg po bid of L-histidine and carbidopa 50 mg po bid, one individual
[4] = Group 2: 500 mg po bid of L-histidine and carbidopa 50 mg po bid, single subject
[5] = Group 2 responder, 500 mg po bid of L-histidine and carbidopa 50 mg po bid
[6] = short exposure to the study drug
[7] = following histidine loading, lower prior to loading
[8] = responder population after histidine loading, FIG. 8

N[C@@H](Cc1c[nH]cn1)C(=O)O [L-histidine]
adverse events ([1]; Group 1: 150 mg po bid of L-histidine and carbidopa 50 mg po bid): No adverse events were reported
response in fatigue scales (VAFS, FSS, MFIS) [1, 3]: improved fatigue scores in all three fatigue scales
improvement in the MFIS [1, 3]: 30%
response in fatigue scales (VAFS, FSS, MFIS) [1, 4]: improvement in all 3 fatigue scales
improvement in the MFIS [1, 4]: 81%
cognition (written narrative) [1, 5]: able to think clearly, have better focus, and improved cognition
libido and sexual activity (written narrative) [1, 5]: Remarkable improvement of libido and sexual activity
overall quality of life (written narrative) [1, 5]: marked improvement in overall quality of life
relief from fatigue (written narratives) ([1]; Group 3: L-histidine 1 gm po bid and carbidopa 50 mg po bid): The relief from fatigue was complete
response in fatigue scales (VAFS, FSS, MFIS) ([1]; Group 3: L-histidine 1 gm po bid and carbidopa 50 mg po bid, MS subjects): three of the three MS subjects noticed remarkable improvement
improvements of MFIS better than off-drug scores ([1]; Group 3: L-histidine 1 gm po bid and carbidopa 50 mg po bid, three MS subjects, one value each): 69% and 74% and 82%
day on which subjects noticed the change ([1]; all subjects who noted improvement, at whatever dose, response sustained until study drug discontinued): ~2 days
adverse events ([1]; normal subjects): Nor did they experience any adverse events
benefit from the study drug ([1]; normal subjects (no MS, no fatigue)): did not notice any benefit
subset scores of MSFC (post-hoc examination) ([1]; responders, physical, cognitive and psychosocial domains): improvement of all three domains, physical, cognitive and psychosocial
change in satiety scale [1, 6]: A change in satiety scale was not recorded
change in weight [1, 6]: A change in weight was also not recorded
Epworth Sleep Scale (ESS) on study drug ([1]; single fatigue responder with ESS over 10, dropped from 13): 6
reported adverse events ([1]; whole study, all groups): few and related to the lumbar punctures or unrelated intercurrent infections
time after which plasma L-histidine levels became undetectable ([2]; human, in vivo): > 4 h
time of peak levels of L-histidine in the plasma ([2]; plasma, after final dose, FIG. 5A, 500 mg carbidopa arm): 2 h
Histamine levels in the CSF (CSF biochemicals; FIG. 7): below the level of detection sensitivity
Histidine levels in CSF after loading (CSF biochemicals; MS patients and normal subjects, FIG. 7): increased after loading similarly in MS patients and normal subjects
Deoxycarnitine in CSF (CSF biochemicals; after histidine loading): increased
NAA levels in CSF (CSF biochemicals; after histidine loading): increased
Carnosine and homocarnosine levels in CSF (CSF biochemicals; after histidine loading, FIG. 7): did not change significantly
levels of carnosine and homocarnosine (CSF biochemicals; after the intervention (concluding statement)): increases the levels
Acetoacetate in CSF (CSF biochemicals; [7]): increased following histidine loading
beta hydroxybutyrate in CSF (CSF biochemicals; [7]): increased following histidine loading
cis-aconitate in CSF (CSF biochemicals; post dosing, MS subjects): increases were observed
citrate in CSF (CSF biochemicals; post dosing, MS subjects): increases were observed
Creatine phosphate in CSF (CSF biochemicals; [8]): increased
N-acetylaspartate (NAA) in CSF (CSF biochemicals; [8]): increased
